Source: patent US6235717A, “Pharmaceutical compounds” (Glaxo Wellcome Inc., priority 1993, dated 2001)
Non-standard residues stand in square brackets, D forms with d. Residues, ends and D or L forms follow the SMILES beside them. ξ: configuration not given here. *: point of attachment. Phe(4-Br) = N[CH](Cc1ccc(Br)cc1)C(=O)O; ξW = NC(Cc1c[nH]c2ccccc12)C(=O)O; Cha = N[CH](CC1CCCCC1)C(=O)O; MeOSuc = COC(=O)CCC(=O)*; Cbz = O=C(OCc1ccccc1)*; Pentanoyl = CCCCC(=O)*; Ahx = NCCCCCC(=O)O; Bn = c1ccc(C*)cc1; OtBu = CC(C)(C)O*

target: endothelin converting enzyme (ECE) (Sus scrofa, UniProt F1SU04); experiment: "ECE" assay with porcine aortic "ECE" prep, fluorogenic substrate Suc-Ile-Ile-Trp-MCA; format: biochemical; details: porcine aortic endothelial cell ECE prep; 80 μM Suc-Ile-Ile-Trp-MCA; 15-20 min preincubation; overnight at 37° C.; pH 7.0; AMC fluorescence
Method: IC50 values were determined as follows:
Porcine Aortic "ECE" Prep
Porcine aortas (22-25) were obtained fresh from a local slaughterhouse and delivered in cold PBS on ice. The aortas were cut open, rinsed with cold PBS and the endothelial cell layer scraped into cold PBS using a scalpel. The endothelial cells were pelleted by centrifugation, rinsed once with cold PBS, and repelleted. The pellet was lysed by addition of 10 volumes of 10 mM Tris-HCl, pH 7.0, containing protease inhibitors and DTS, followed by brief sonication and homogenization. The lysate was centrifuged at 100,000 g for 1 hour and the supernatant applied to a MONOQ FPLC anion exchange column equilibrated in 10 mM Tris-HCl, pH 7.0 (buffer A) which was then developed with an increasing gradient of NaCl in buffer A. The active fractions were aliquoted and stored at -70° C.
The ECE assay was performed in 96-well microplates in a total volume of 200μ/well. The assay cocktail contains 100 mM Tris-HCl, pH 7.0, 20 mM CaCl2, 80 μM substrate (Suc-Ile-Ile-Trp-MCA), enzyme and test compounds. The test compounds were preincubated with the enzyme for 15-20 minutes before initiation of the assay by addition of the substrate. The assay was incubated overnight at 37° C. and the fluorescence intensity caused by the release of AMC was determined using a fluorescence microplate reader (EX360 nm/EM460 nm). IC50 values for compounds were determined by constructing concentration-effect curves for the inhibition of enzyme activity. Concentrations on the linear portion of the inhibition curve were used to determine the IC50 utilizing a Hill plot.

Chain of endothelin converting enzyme (ECE) (F1SU04 entry or part of it): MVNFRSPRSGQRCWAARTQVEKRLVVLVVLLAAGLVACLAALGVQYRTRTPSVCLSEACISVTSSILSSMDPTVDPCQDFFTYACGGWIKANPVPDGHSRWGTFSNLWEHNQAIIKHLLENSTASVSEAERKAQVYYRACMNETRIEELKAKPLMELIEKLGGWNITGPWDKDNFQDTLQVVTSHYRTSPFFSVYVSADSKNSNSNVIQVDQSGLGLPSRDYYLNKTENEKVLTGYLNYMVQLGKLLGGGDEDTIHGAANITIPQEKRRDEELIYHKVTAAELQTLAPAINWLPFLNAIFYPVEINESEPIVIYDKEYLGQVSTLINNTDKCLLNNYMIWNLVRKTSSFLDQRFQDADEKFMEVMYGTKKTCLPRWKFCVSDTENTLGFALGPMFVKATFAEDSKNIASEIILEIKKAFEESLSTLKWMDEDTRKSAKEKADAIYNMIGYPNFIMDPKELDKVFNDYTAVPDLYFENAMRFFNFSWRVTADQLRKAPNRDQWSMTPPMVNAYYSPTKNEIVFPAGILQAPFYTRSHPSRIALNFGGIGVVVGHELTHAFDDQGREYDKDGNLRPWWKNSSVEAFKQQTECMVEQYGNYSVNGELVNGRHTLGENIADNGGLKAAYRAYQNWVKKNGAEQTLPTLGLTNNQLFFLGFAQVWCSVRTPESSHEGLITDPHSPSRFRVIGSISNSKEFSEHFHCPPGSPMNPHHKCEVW

IC50 [nM]	SMILES
60	CC[C@H](C)[C@H](NC(=O)[C@H](CC(=O)OC(C)(C)C)NC(=O)OCc1ccccc1)C(=O)N[C@H](C(=O)N[C@H](C=O)Cc1c[nH]c2ccccc12)[C@@H](C)CC [Example 64] (Cbz-D(OtBu)IIW-aldehyde)
300	CC[C@H](C)[C@H](NC(=O)CCCCCNC(=O)CCCCC1SCC2NC(=O)NC21)C(=O)N[C@H](C(=O)NC(Cc1c[nH]c2ccccc12)C(OC)OC)[C@@H](C)CC (stereo partly drawn) [Example 66, N-[[[5-(hexahydro-2-oxo-1H-thieno[3,4-d]imidazol-4-yl)valeramido]hexanoyl]-L-isoleucyl-L-isoleucine-L-N-[1-dimethoxymethyl]2-(1H-indol-3-yl)ethyl]amide]
5000	CC[C@H](C)[C@H](NC(=O)CCCCCNC(=O)CCCCCNC(=O)OCc1ccccc1)C(=O)N[C@H](C(=O)N[C@@H](Cc1c[nH]c2ccccc12)C(OC)OC)[C@@H](C)CC [Example 68]
60	CC[C@H](C)[C@H](NC(=O)CCCCCNC(=O)CCCCCNC(=O)c1cc(=O)[nH]c(=O)[nH]1)C(=O)N[C@H](C(=O)NC(C=O)Cc1c[nH]c2ccccc12)[C@@H](C)CC (stereo partly drawn) [Example 69]
80	CC[C@H](C)[C@H](NC(=O)CCCCCNC(=O)CCCCCNC(=O)CC1NC(=O)NC1=O)C(=O)N[C@H](C(=O)NC(C=O)Cc1c[nH]c2ccccc12)[C@@H](C)CC (stereo partly drawn) [Example 70]
40	CC[C@H](C)[C@H](NC(=O)CCCCCNC(=O)OCc1ccccc1)C(=O)N[C@H](C(=O)N[C@H](C=O)Cc1c[nH]c2ccccc12)[C@@H](C)CC [Example 71] ({Cbz-Ahx}-Ile-Ile-Trp-aldehyde)
150	CCCCC(=O)N[C@H](C(=O)N[C@H](C(=O)NC(C=O)Cc1c[nH]c2ccccc12)[C@@H](C)CC)[C@@H](C)CC (stereo partly drawn) [Example 72] (Pentanoyl-Ile-Ile-[ξW]-aldehyde)
8000	CC[C@H](C)[C@H](NC(=O)CCC(=O)OC)C(=O)N[C@H](C(=O)NC(Cc1c[nH]c2ccccc12)C(OC)OC)[C@@H](C)CC (stereo partly drawn) [Example 73]
80	CC[C@H](C)[C@H](NC(=O)CCC(=O)OC)C(=O)N[C@H](C(=O)NC(C=O)Cc1c[nH]c2ccccc12)[C@@H](C)CC (stereo partly drawn) [Example 74] (MeOSuc-Ile-Ile-[ξW]-aldehyde)
1000	CC[C@@H](C)[C@@H](NC(=O)OCc1ccccc1)C(=O)N[C@H](C(=O)N[C@H](C=O)Cc1c[nH]c2ccccc12)[C@@H](C)CC [Example 77, N-Benzyloxycarbonyl-R-isoleucyl-S-isoleucine-1-S--formyl-2-(1H--indol-3-yl)-ethylamide] (Cbz-[dI]-Ile-Trp-aldehyde)
200	CC[C@H](C)[C@H](NC(=O)OCc1cccnc1)C(=O)N[C@H](C(=O)N[C@H](C=O)Cc1c[nH]c2ccccc12)[C@@H](C)CC [Example 81]
50	CC[C@H](C)[C@H](NC(=O)CCCCc1ccccc1)C(=O)N[C@H](C(=O)NC(C=O)Cc1c[nH]c2ccccc12)[C@@H](C)CC (stereo partly drawn) [Example 89]
60	CC[C@H](C)[C@H](NC(=O)CCOc1ccccc1)C(=O)N[C@H](C(=O)N[C@H](C=O)Cc1c[nH]c2ccccc12)[C@@H](C)CC [Example 90]

The remaining lines, values behind:

SMILES	IC50 [nM]
NC(=O)NN=CC(Cc1c[nH]c2ccccc12)NC(=O)[C@H](Cc1c[nH]c2ccccc12)NC(=O)[C@H](Cc1c[nH]c2ccccc12)NC(=O)OCc1ccccc1 (stereo partly drawn) [Example 75]	40
COC(OC)C(Cc1c[nH]c2ccccc12)NC(=O)[C@H](Cc1c[nH]c2ccccc12)NC(=O)[C@H](Cc1c[nH]c2ccccc12)NC(=O)CCCCCNC(=O)CCCCC1SCC2NC(=O)NC21 (stereo partly drawn) [Example 78, N-[[[5-(hexahydro-2-oxo-1H-thieno[3,4-d]imidazol-4-yl)valeramido]hexanoyl]-L-trytophanyl-L-tryptophan-L-N-[1-dimethoxymethyl]2-(1H-indol-3-yl)ethyl]amide]	10000
CC[C@H](C)[C@H](NC(=O)OCc1ccccc1)C(=O)N[C@H](C(=O)NC(Cc1c[nH]c2ccccc12)NC(=O)COC(C)=O)[C@@H](C)CC (stereo partly drawn) [Example 80]	10000
CCOC(=O)C1OC1C(=O)NCC(Cc1c[nH]c2ccccc12)NC(=O)[C@@H](NC(=O)[C@@H](NC(=O)OCc1ccccc1)[C@@H](C)CC)[C@@H](C)CC (stereo partly drawn) [Example 82]	10000
CC[C@H](C)[C@H](NC(=O)OCc1ccccc1)C(=O)N[C@H](C(=O)NC(CNC(=O)CCN1C(=O)C=CC1=O)Cc1c[nH]c2ccccc12)[C@@H](C)CC (stereo partly drawn) [Example 83, N-(benzyloxy)carbonyl-L-isoleucyl-L-isoleucine-L-N-[1-[(3-maleimidopropionamido]methyl]-2-(1H-indol-3-yl)ethyl]amide]	1000
CC[C@H](C)[C@H](NC(=O)OCc1ccccc1)C(=O)N[C@H](C(=O)N[C@H](CNC(=O)CN1C(=O)C=CC1=O)Cc1c[nH]c2ccccc12)[C@@H](C)CC [Example 84]	1000
CC[C@H](C)[C@H](NC(=O)OCc1ccccc1)C(=O)N[C@H](C(=O)NC(CNC(=O)CCl)Cc1c[nH]c2ccccc12)[C@@H](C)CC (stereo partly drawn) [Example 85, N-(benzyloxy)carbonyl-L-isoleucyl-L-isoleucine-L-N-[1-[(2-chloroacetamido]methy]-2-(1H-indol-3-yl)ethyl]amide]	10000
CC[C@H](C)[C@H](NC(=O)OCc1ccccc1)C(=O)N[C@H](C(=O)NC(CNC(=O)CO)Cc1c[nH]c2ccccc12)[C@@H](C)CC (stereo partly drawn) [Example 86, N-(benzyloxy)carbonyl-L-isoleucyl-L-isoleucine-L-N-[1-[(2-hydroxyacetamido]methyl]-2-(1H-indol-3-yl)ethyl]amide]	10000
NC(=O)NN=CC(Cc1c[nH]c2ccccc12)NC(=O)[C@H](Cc1c[nH]c2ccccc12)NC(=O)[C@H](Cc1c[nH]c2ccccc12)NC(=O)CCCCCNC(=O)CCCCC1SCC2NC(=O)NC21 (stereo partly drawn) [Example 87, N-[[[5-(hexahydro-2-oxo-1H-thieno[3,4-d]imidazol-4-yl)valeramido]hexanoyl]-L-tryptophanyl-L-tryptophan-L-N-[1-semicarbazonomethyl]2-(1H-indol-3-yl)ethyl]amide]	60
CC[C@H](C)[C@H](NC(=O)OCc1ccccc1)C(=O)N[C@H](C(=O)NC(Cc1ccccc1)C(=O)C(=O)O)[C@@H](C)CC (stereo partly drawn) [Example 88]	600
O=C[C@H](Cc1c[nH]c2ccccc12)NC(=O)[C@H](Cc1c[nH]c2ccccc12)NC(=O)[C@H](Cc1c[nH]c2ccccc12)NC(=O)CCCCC1SCC2NC(=O)NC21 (stereo partly drawn) [Example 91, N-[[5-(hexahydro-2-oxo-1H-thieno[3,4-d]imidazol-4-yl)pentanoyl]-L-tryptophanyl-L-tryptophan-L-N-[1-formyl]2-(1H-indol-3-yl)ethyl]amide]	5
COC(OC)[C@H](Cc1c[nH]c2ccccc12)NC(=O)[C@H](Cc1cccc2ccccc12)NC(=O)[C@H](Cc1ccc(Br)cc1)NC(=O)CCCCC1SCC2NC(=O)NC21 (stereo partly drawn) [Example 92, N-[[5-(hexahydro-2-oxo-1H-thieno[3,4-d]imidazol-4-yl)pentanoyl]-L-p-bromophenylalanyl-L-1-naphthylalanyl-L-N-[1-dimethoxymethyl]2-(1H-indol-3-yl)ethyl]amide]	1000
O=CC(Cc1c[nH]c2ccccc12)NC(=O)[C@H](Cc1cccc2ccccc12)NC(=O)[C@H](Cc1ccc(Br)cc1)NC(=O)CCCCC1SCC2NC(=O)NC21 (stereo partly drawn) [Example 93, N-[[5-(hexahydro-2-oxo-1H-thieno[3,4-d]imidazol-4-yl)pentanoyl]-L-p-bromophenylalanyl-L-1-naphthylalanyl-L-N-[1-formyl]2-(1H-indol-3-yl)ethyl]amide]	2
O=C(N[C@@H](Cc1ccc(Br)cc1)C(=O)N[C@@H](Cc1cccc2ccccc12)C(=O)NC(Cc1ccccc1)C(=O)C1CO1)OCc1ccccc1 (stereo partly drawn) [Example 94]	6
CC[C@H](C)[C@H](NC(=O)OCc1ccccc1)C(=O)N[C@H](C(=O)NC(Cc1c[nH]c2ccccc12)CN1C(=O)C=CC1=O)[C@@H](C)CC (stereo partly drawn) [Example 95, N-[(benzyloxy)carbonyl]-L-isoleucyl-L-isoleucine-L-N-[1-(N-maleimidomethyl)-2-(1H-indol-3-yl)ethyl]amide]	1000
CC[C@H](C)[C@H](NC(=O)OCc1ccccc1)C(=O)N[C@H](C(=O)NC(Cc1ccccc1)C(=O)C(=O)C(=O)OC)[C@@H](C)CC (stereo partly drawn) [Example 96, N-[(benzyloxy)carbonyl]-L-isoleucyl-L-isoleucine-L-N-[1-(3-methoxycarbonyloxalyl]2-(phenyl)ethyl]amide]	10000
O=CC(Cc1ccc(Br)cc1)NC(=O)C(Cc1ccc(OCc2ccccc2)cc1)NC(=O)C(CC1CCCCC1)NC(=O)OCc1ccccc1 (stereo not drawn) [Example 97, N-Benzyloxycarbonyl-S-cyclohexylalanyl-S-(O-benzyl)tyrosyl-1-S-formyl-1-(4-bromophenylmethyl)-methylamide] (Cbz-[Cha]-Tyr(Bn)-[Phe(4-Br)]-aldehyde; configuration not given here)	10000
